Earlier results, collected in patent publication US20260294906A1, “TREATING PSORIASIS USING A SMALL MOLECULE INHIBITOR OF TUMOR NECROSIS FACTOR ALPHA” (SANOFI, priority 2023, published 2026).

Legend:
TNFR1 = details: Jurkat cells; sTNFα pre-incubated with the substance, compared with sTNFα alone; cited from earlier work
sTNFα = details: O'Connell et al.; cited from earlier work

Compound | TNFR1 signaling (RIP-1 ubiquitination and NF-κB phosphorylation) (TNFR1) | stabilization of the asymmetric sTNFα trimer (sTNFα)
Cc1ccc(C)c(Cn2c(C(O)c3ccncc3)nc3ccc(-c4cnn(C)c4)cc32)c1 (stereo not drawn) [UCB-9260, reference compound] | impaired | stabilizes the asymmetric sTNFα trimer
etanercept | impaired | –
